pEC50: −log10 of the molar value.
Biological target: human F508del-CFTR (Homo sapiens, UniProt P13569, DEL508-508)
Test: F508del-CFTR cell surface expression (corrector activity), DiscoveRx ß-galactosidase complementation chemiluminescence assay in recombinant U2OS cell line;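 further: U2OS cells co-expressing ProLink-tagged F508del-CFTR and a membrane-anchored enzyme acceptor, where more surface CFTR restores β-galactosidase activity measured by chemiluminescence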
Conditions: for pEC50: EC50, F508del-CFTR cell surface expression, U2OS cells, 16h compound incubation, geomean values; for Emax: U2OS, in relation to Emax of corrector lumacaftor (=100%), arithmetic mean values
Procedure: The method measures the effect of over-night compound incubation on F508del-CFTR cell surface expression in a recombinant U2OS cell line (DiscoveRx, #93-0987C3). This cell line is engineered to co-express (i) human F508del-CFTR tagged with a Prolink (PK=short ß-galactosidase fragment) and (ii) the remainder of the ß-galactosidase enzyme (Enzyme Acceptor; EA) localized to the plasma membrane. Incubation with compounds that increase PK-tagged F508del-CFTR at the plasma membrane will lead to complementation of the EA fragment to form a functional ß-galactosidase enzyme which is quantified by a chemiluminescence reaction.
The cells are incubated for 5h in the incubator before the addition of 5 μl/well of compound dilution series (5× working stocks in full medium). […] The cells are co-incubated with the compounds for 16h in the incubator at 37° C., 5% CO2. The next day, the cell plates are incubated for 2h at RT in the dark. […] Concentration-response curves are generated using compound-intrinsic maximal efficacy as upper plateau, and from these CRCs compound-intrinsic EC50 values are determined.
The calculated EC50 values may fluctuate depending on the daily assay performance. […] EC50 values from several measurements are given as geomean values. The calculated Emax values may fluctuate depending on the daily assay performance. […] Emax values from several measurements are given as arithmetic mean values.

Sequence of human F508del-CFTR (P13569 with tags, fused parts or gaps DEL508-508): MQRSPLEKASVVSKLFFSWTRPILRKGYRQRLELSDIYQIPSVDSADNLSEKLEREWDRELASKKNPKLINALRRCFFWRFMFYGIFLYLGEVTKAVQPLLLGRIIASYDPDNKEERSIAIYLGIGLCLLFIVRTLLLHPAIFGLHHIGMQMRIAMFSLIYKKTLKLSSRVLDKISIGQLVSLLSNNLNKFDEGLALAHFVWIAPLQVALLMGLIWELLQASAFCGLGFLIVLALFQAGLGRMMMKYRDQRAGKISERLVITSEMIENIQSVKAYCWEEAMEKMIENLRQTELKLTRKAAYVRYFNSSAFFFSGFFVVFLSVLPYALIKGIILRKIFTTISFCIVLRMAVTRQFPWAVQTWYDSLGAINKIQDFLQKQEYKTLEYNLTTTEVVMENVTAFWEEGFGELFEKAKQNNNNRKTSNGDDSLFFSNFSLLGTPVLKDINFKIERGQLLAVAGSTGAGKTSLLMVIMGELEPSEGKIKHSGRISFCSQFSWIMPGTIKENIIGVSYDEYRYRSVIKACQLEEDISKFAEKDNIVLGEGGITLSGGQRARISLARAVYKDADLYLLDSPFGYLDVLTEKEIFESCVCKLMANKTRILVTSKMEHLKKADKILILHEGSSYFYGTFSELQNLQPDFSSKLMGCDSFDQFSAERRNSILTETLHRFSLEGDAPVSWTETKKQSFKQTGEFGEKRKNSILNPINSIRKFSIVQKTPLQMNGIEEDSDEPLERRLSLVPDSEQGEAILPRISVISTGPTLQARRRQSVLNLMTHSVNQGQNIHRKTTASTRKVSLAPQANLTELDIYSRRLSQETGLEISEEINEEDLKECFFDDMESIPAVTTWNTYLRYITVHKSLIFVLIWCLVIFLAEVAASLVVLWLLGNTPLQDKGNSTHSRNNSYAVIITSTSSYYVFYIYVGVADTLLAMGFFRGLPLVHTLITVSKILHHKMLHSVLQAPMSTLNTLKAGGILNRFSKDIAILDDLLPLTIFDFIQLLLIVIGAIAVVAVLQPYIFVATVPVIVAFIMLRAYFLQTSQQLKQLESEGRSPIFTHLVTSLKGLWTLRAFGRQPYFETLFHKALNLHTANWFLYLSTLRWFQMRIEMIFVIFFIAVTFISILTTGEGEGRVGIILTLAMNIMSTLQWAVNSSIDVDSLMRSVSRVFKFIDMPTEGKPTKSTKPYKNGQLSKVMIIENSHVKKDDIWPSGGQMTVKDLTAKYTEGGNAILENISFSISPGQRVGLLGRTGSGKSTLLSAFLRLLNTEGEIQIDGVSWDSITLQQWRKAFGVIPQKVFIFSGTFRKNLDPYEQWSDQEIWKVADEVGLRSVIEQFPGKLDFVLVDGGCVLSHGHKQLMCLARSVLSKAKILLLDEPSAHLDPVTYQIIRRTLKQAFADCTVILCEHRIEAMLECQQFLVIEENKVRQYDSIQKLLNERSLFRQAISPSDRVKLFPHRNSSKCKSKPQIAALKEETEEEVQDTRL

SMILES | pEC50 | Emax [%]
Cc1cc(CCNC(=O)[C@@H]2CC(=O)N(C)[C@@H](CC(C)C)C(=O)N(C)[C@H](Cc3ccccc3)C(=O)N[C@H](Cc3ccccc3)COc3cnc4ccc(F)cc4c3C(=O)N2)on1 [Example 722, (3S,7S,10R,13R)-10,13-Dibenzyl-20-fluoro-7-isobutyl-6,9-dimethyl-N-(2-(3-methylisoxazol-5-yl)ethyl)-1,5,8,11-tetraoxo-1,2,3,4,5,6,7,8,9,10,11,12,13,14-tetradecahydro-[1]oxa[4,7,10,14]tetraazacycloheptadecino[17,16-c]quinoline-3-carboxamide] | 7.00 | 347
COc1nccc2c1C(=O)N[C@H](C(=O)NCCc1nc(C3CC3)no1)CC(=O)N(C)[C@@H](CC(C)C)C(=O)N(C)[C@@H](COCc1ccccc1)C(=O)N[C@H](Cc1ccccc1)CO2 [Example 724, (3R,6RS,9S,13S)-3-benzyl-6-((benzyloxy)methyl)-N-(2-(3-cyclopropyl-1,2,4-oxadiazol-5-yl)ethyl)-9-isobutyl-16-methoxy-7,10-dimethyl-5,8,11,15-tetraoxo-2,3,4,5,6,7,8,9,10,11,12,13,14,15-tetradecahydropyrido[3,4-p][1]oxa[4,7,10,14]tetraazacycloheptadecine-13-carboxamide] | 7.03 | 345
Cc1cc(CCNC(=O)[C@@H]2CC(=O)N(C)[C@@H](CC(C)C)C(=O)N3CCNC[C@@H]3C(=O)N[C@H](Cc3ccccc3)COc3ccc4ccccc4c3C(=O)N2)on1 [Example 725, (4aR,7R,18S,22S)-7-Benzyl-22-isobutyl-21-methyl-N-(2-(3-methylisoxazol-5-yl)ethyl)-5,16,20,23-tetraoxo-2,3,4,4a,5,6,7,8,16,17,18,19,20,21,22,23-hexadecahydro-1H-naphtho[1,2-p]pyrazino[2,1-f][1]oxa[4,7,10,14]tetraazacycloheptadecine-18-carboxamide] | 5.86 | 200
COc1cccc(CCNC(=O)[C@@H]2CC(=O)N(C)[C@@H](CC(C)C)C(=O)N3CCNC[C@@H]3C(=O)N[C@H](Cc3ccccc3)COc3ccc4ccccc4c3C(=O)N2)c1 [Example 726, (4aR,7R,18S,22S)-7-benzyl-22-isobutyl-N-(3-methoxyphenethyl)-21-methyl-5,16,20,23-tetraoxo-2,3,4,4a,5,6,7,8,16,17,18,19,20,21,22,23-hexadecahydro-1H-naphtho[1,2-p]pyrazino[2,1-f][1]oxa[4,7,10,14]tetraazacycloheptadecine-18-carboxamide] | 6.20 | 234
Cc1cc(CCNC(=O)[C@@H]2CC(=O)N(C)[C@@H](CC(C)C)C(=O)N3CCNC[C@@H]3C(=O)N[C@H](Cc3ccccc3)COc3cnc4ccccc4c3C(=O)N2)on1 [Example 727, (9S,13S,19aR,22R)-22-benzyl-13-isobutyl-12-methyl-N-(2-(3-methylisoxazol-5-yl)ethyl)-7,11,14,20-tetraoxo-7,8,9,10,11,12,13,14,17,18,19,19a,20,21,22,23-hexadecahydro-16H-pyrazino[2′,1′:6,7][1]oxa[4,7,10,14]tetraazacycloheptadecino[17,16-c]quinoline-9-carboxamide] | 5.30 | 138
COc1cccc(CCNC(=O)[C@@H]2CC(=O)N(C)[C@@H](CC(C)C)C(=O)N3CCN(S(=O)(=O)c4ccccc4)C[C@@H]3C(=O)N[C@H](Cc3ccccc3)COc3ccc4ccccc4c3C(=O)N2)c1 [Example 729, (4aR,7R,18S,22S)-7-benzyl-22-isobutyl-N-(3-methoxyphenethyl)-21-methyl-5,16,20,23-tetraoxo-3-(phenylsulfonyl)-2,3,4,4a,5,6,7,8,16,17,18,19,20,21,22,23-hexadecahydro-1H-naphtho[1,2-p]pyrazino[2,1-f][1]oxa[4,7,10,14]tetraazacycloheptadecine-18-carboxamide] | 7.00 | 258
COc1cccc(CCNC(=O)[C@@H]2CC(=O)N(C)[C@@H](CC(C)C)C(=O)N3CCN(S(=O)(=O)CCCN4CCOCC4)C[C@@H]3C(=O)N[C@H](Cc3ccccc3)COc3ccc4ccccc4c3C(=O)N2)c1 [Example 730, (4aR,7R,18S,22S)-7-benzyl-22-isobutyl-N-(3-methoxyphenethyl)-21-methyl-3-((3-morpholinopropyl)sulfonyl)-5,16,20,23-tetraoxo-2,3,4,4a,5,6,7,8,16,17,18,19,20,21,22,23-hexadecahydro-1H-naphtho[1,2-p]pyrazino[2,1-f][1]oxa[4,7,10,14]tetraazacycloheptadecine-18-carboxamide] | 6.23 | 248
COc1cccc(CCNC(=O)[C@@H]2CC(=O)N(C)[C@@H](CC(C)C)C(=O)N3CCN(S(C)(=O)=O)C[C@@H]3C(=O)N[C@H](Cc3ccccc3)COc3ccc4ccccc4c3C(=O)N2)c1 [Example 731, (4aR,7R,18S,22S)-7-benzyl-22-isobutyl-N-(3-methoxyphenethyl)-21-methyl-3-(methylsulfonyl)-5,16,20,23-tetraoxo-2,3,4,4a,5,6,7,8,16,17,18,19,20,21,22,23-hexadecahydro-1H-naphtho[1,2-p]pyrazino[2,1-f][1]oxa[4,7,10,14]tetraazacycloheptadecine-18-carboxamide] | 6.42 | 248
COc1cccc(CCNC(=O)[C@@H]2CC(=O)N(C)[C@@H](CC(C)C)C(=O)N3CCN(S(=O)(=O)c4cccc(OC(F)(F)F)c4)C[C@@H]3C(=O)N[C@H](Cc3ccccc3)COc3ccc4ccccc4c3C(=O)N2)c1 [Example 732, (4aR,7R,18S,22S)-7-benzyl-22-isobutyl-N-(3-methoxyphenethyl)-21-methyl-5,16,20,23-tetraoxo-3-((3-(trifluoromethoxy)phenyl)sulfonyl)-2,3,4,4a,5,6,7,8,16,17,18,19,20,21,22,23-hexadecahydro-1H-naphtho[1,2-p]pyrazino[2,1-f][1]oxa[4,7,10,14]tetraazacycloheptadecine-18-carboxamide] | 7.19 | 239
COCCS(=O)(=O)N1CCN2C(=O)[C@H](CC(C)C)N(C)C(=O)C[C@@H](C(=O)NCCc3cccc(OC)c3)NC(=O)c3c(ccc4ccccc34)OC[C@@H](Cc3ccccc3)NC(=O)[C@H]2C1 [Example 733, (4aR,7R,18S,22S)-7-benzyl-22-isobutyl-3-((2-methoxyethyl)sulfonyl)-N-(3-methoxyphenethyl)-21-methyl-5,16,20,23-tetraoxo-2,3,4,4a,5,6,7,8,16,17,18,19,20,21,22,23-hexadecahydro-1H-naphtho[1,2-p]pyrazino[2,1-f][1]oxa[4,7,10,14]tetraazacycloheptadecine-18-carboxamide] | 6.46 | 235
COc1cccc(CCNC(=O)[C@@H]2CC(=O)N(C)[C@@H](CC(C)C)C(=O)N3CCN(S(=O)(=O)C4CCOCC4)C[C@@H]3C(=O)N[C@H](Cc3ccccc3)COc3ccc4ccccc4c3C(=O)N2)c1 [Example 734, (4aR,7R,18S,22S)-7-benzyl-22-isobutyl-N-(3-methoxyphenethyl)-21-methyl-5,16,20,23-tetraoxo-3-((tetrahydro-2H-pyran-4-yl)sulfonyl)-2,3,4,4a,5,6,7,8,16,17,18,19,20,21,22,23-hexadecahydro-1H-naphtho[1,2-p]pyrazino[2,1-f][1]oxa[4,7,10,14]tetraazacycloheptadecine-18-carboxamide] | 6.52 | 325
COc1cccc(CCNC(=O)[C@@H]2CC(=O)N(C)[C@@H](CC(C)C)C(=O)N3CCN(S(=O)(=O)CCN(C)C)C[C@@H]3C(=O)N[C@H](Cc3ccccc3)COc3ccc4ccccc4c3C(=O)N2)c1 [Example 735, (4aR,7R,18S,22S)-7-benzyl-3-((2-(dimethylamino)ethyl)sulfonyl)-22-isobutyl-N-(3-methoxyphenethyl)-21-methyl-5,16,20,23-tetraoxo-2,3,4,4a,5,6,7,8,16,17,18,19,20,21,22,23-hexadecahydro-1H-naphtho[1,2-p]pyrazino[2,1-f][1]oxa[4,7,10,14]tetraazacycloheptadecine-18-carboxamide] | 6.50 | 176
COc1cccc(CCNC(=O)[C@@H]2CC(=O)N(C)[C@@H](CC(C)C)C(=O)N3CCN(S(=O)(=O)Cc4ccccc4)C[C@@H]3C(=O)N[C@H](Cc3ccccc3)COc3ccc4ccccc4c3C(=O)N2)c1 [Example 736, (4aR,7R,18S,22S)-7-benzyl-3-(benzylsulfonyl)-22-isobutyl-N-(3-methoxyphenethyl)-21-methyl-5,16,20,23-tetraoxo-2,3,4,4a,5,6,7,8,16,17,18,19,20,21,22,23-hexadecahydro-1H-naphtho[1,2-p]pyrazino[2,1-f][1]oxa[4,7,10,14]tetraazacycloheptadecine-18-carboxamide] | 6.82 | 286
COc1cccc(CCNC(=O)[C@@H]2CC(=O)N(C)[C@@H](CC(C)C)C(=O)N3CCN(S(=O)(=O)c4ccc5oc(=O)[nH]c5c4)C[C@@H]3C(=O)N[C@H](Cc3ccccc3)COc3ccc4ccccc4c3C(=O)N2)c1 [Example 737, (4aR,7R,18S,22S)-7-benzyl-22-isobutyl-N-(3-methoxyphenethyl)-21-methyl-5,16,20,23-tetraoxo-3-((2-oxo-2,3-dihydrobenzo[d]oxazol-5-yl)sulfonyl)-2,3,4,4a,5,6,7,8,16,17,18,19,20,21,22,23-hexadecahydro-1H-naphtho[1,2-p]pyrazino[2,1-f][1]oxa[4,7,10,14]tetraazacycloheptadecine-18-carboxamide] | 6.18 | 298
COc1cccc(CCNC(=O)[C@@H]2CC(=O)N(C)[C@@H](CC(C)C)C(=O)N3CCN(S(=O)(=O)Cc4cccc5cccnc45)C[C@@H]3C(=O)N[C@H](Cc3ccccc3)COc3ccc4ccccc4c3C(=O)N2)c1 [Example 738, (4aR,7R,18S,22S)-7-benzyl-22-isobutyl-N-(3-methoxyphenethyl)-21-methyl-5,16,20,23-tetraoxo-3-((quinolin-8-ylmethyl)sulfonyl)-2,3,4,4a,5,6,7,8,16,17,18,19,20,21,22,23-hexadecahydro-1H-naphtho[1,2-p]pyrazino[2,1-f][1]oxa[4,7,10,14]tetraazacycloheptadecine-18-carboxamide] | 6.96 | 256
